Test results as given in patent US8883165B2, “Modified peptide vaccine derived from influenza M2” (The Chemo-Sero-Therapeutic Research Institute, priority 2009, dated 2014).
“And” between values parts separate entries of the source, which are not always exact repeats. Identical values can stand only once. “Also recorded” adds a separate entry of the source.

Experiments:
[1] = test system: M2e; design: species or system BALB/c mice; conditions: mouse, in vivo, sc
[2] = test system: M2e; design: species or system BALB/c mice; conditions: mouse, in vivo
[3] = test system: Influenza virus (A/PR8/8/34 strain, H1N1); type: in vivo, BALB/c mice; conditions: mouse, in vivo
[4] = test system: M2e; design: species or system BALB/c mice; conditions: mouse, in vivo; remark: listed apart in the source

Row | Sequence | anti-M2e antibody titer, comparison in words [1] | other results
1 | SLLTEVETPIRNEWGCRCNCDSCSD [M2eC2123] | increased anti-M2e antibody titer than M2eC21 | 
2 | SLLTEVETPIRNEWCGCRCNCDSSD [M2eC1621] | increased anti-M2e antibody titer than M2eC21 | 
3 | SLLTEVETPIRNEWGCRCNCDCSSD [M2eC2122] | increased anti-M2e antibody titer than M2eC21 | 
4 | SLLTEVETPIRNECWCGCRCNCDSSD [M2eC151621] | antibody titer comparable to M2e | 
5 | SLLTEVETPIRNEWGCRCNCDCSCSD [M2eC212223] | higher antibody titer than that of M2e | anti-M2e antibody titer just before challenge [2]: could induce a high anti-M2e antibody titer
6 | SLLTEVETPIRNEWCGCRCNCDCSCSCD [M2eC1621222324] | higher than that of M2eC162122 | 
7 | SLLTEVETPIRNEWCGCRCNCDCSSD [M2eC162122] | higher antibody titer than that of M2e | 
8 | SLLTEVETPIRNEWCGCRCNCDCSCSD [M2eC16212223] | higher than that of M2eC162122 | 
9 | SLLTEVETPIRNEWGCRCNCDCSCSCD [M2eC21222324] | higher than that of M2eC212223 | 
10 | SLLTEVETPTRSEWECRCSCDCSCSD [swM2eC212223] |  | Survival rate [3]: 9/9 and 7/8; anti-M2e antibody titer immediately before challenge [4]: the highest; also recorded: high anti-M2e antibody titer
11 | SLLTEVETPIRNEWGCRCNCCCDSSD [M2eC212121] | induced a high anti-M2e antibody titer | 
